According to patent US20050020550A1, “Selective testicular 11beta-HSD inhibitors and methods of use thereof” (priority 2003, published 2005):

Experiments:
[1] = system: 11β-HSD1-reductase activity; assay: Conversion of 3H-11-dehydrocorticosterone back to corticosterone by aortic rings; parameters: species or system rat
Protocol: (§1) The effects of 11β-HSD1 and 11β-HSD2 antisense on the inter-conversion of ^3H-corticosterone and ^3H-11-dehydro-corticosterone by aortic rings was also determined. Rings (2-3 mm) obtained in a similar manner as those in the contraction studies, were incubated in 1 ml DMEM/F12 media containing 1% FBS at 37° C. under 95% O2-5% CO2 in 24-well culture plates. Rings were incubated for 24 hours with: • (i) ^3H-corticosterone (10 mmol/L)±11β-HSD2 or 11β-HSD1 antisense (3 μmol/L); control groups received nonsense oligomers. The amount of ^3H-11-dehydro-corticqsterone in the incubation medium after 24 hrs was then measured. The effects of 11β-HSD1 antisense/nonsense were measured in quadruplicate (n=6 aortic rings per well) and the effects of 11β-HSD2 antisense/nonsense in duplicate (n=8 aortic rings per well), • (ii) ^3H-11-dehydro-corticosterone (10 nmol/L)±11β-HSD1 antisense (3 μmol/L); this experiment was performed in duplicate (n=10 aortic rings per well). Control groups were incubated with the appropriate nonsense oligomer. ^3H-corticosterone in the incubation medium after 24 hrs was then measured. In this experiment, aortic rings were also analyzed for ^3H-corticosterone content. Rings from duplicate incubations (total n=20) were blotted dry, pooled and homogenized in 50% methanol using a Polytron. The homogenates were then centrifuged, extracted as below using Sep-Paks and injected onto a HPLC system for analysis.
(§2) Incubation media was collected, ran through a Sep-Pak and eluted with 3 mls of methanol, the eluate was then dried under nitrogen and reconstituted in 500:1 methanol. […] Steroids were observed by monitoring radioactivity on-line with a Packard Radiomatic Flo-One/Beta Series A-500 counter connected to a Dell Optiflex 425 S/L computer. […]
Corticosterone and phenylephrine were obtained from Sigma (St Louis, Mo.), 11-dehydrocorticosterone from Research Plus (Bayonne, N.J.) and ^3H-steroids from New England Nuclear (Boston, Mass.). Where appropriate, data were expressed as mean±SE and analyzed using ANOVA and the Student's t test with Bonferroni modification. […]

rat aortic rings = assay: Contractile response of rat aortic rings to phenylephrine; settings: for contractile response to phenylephrine: rings incubated 24 hours with corticosterone (10 nmol/L) and antisense oligomers (3 μmol/L); for effect of the steroid on contractile responses to phenylephrine: rat aortic rings incubated with the steroid, compared to controls
Protocol: Male Sprague-Dawley (150-200 g) rats were anesthetized with pentobarbital (50 mg/kg IP), and a median sternotomy was performed followed by the rapid removal of the thoracic aorta. The adventitia was removed, but the endothelium was left intact. The aorta was cut into 2-3 mm rings and individual rings were placed into a single well of a twenty four well culture plate and incubated at 37° C. under 95% O2-5% CO2. Each well contained 1 mL of DMEM/F12 containing 1% fetal bovine serum, streptomycin (100 μg/ml), penicillin (100 units/ml) and amphotericin (0.25 μg/ml). Aortic rings were incubated for 24 hours prior to contractility measurements with the following combinations of steroids, and antisense/nonsense oligonucleotides (3 μmol/L): • Corticosterone (10 nmol/L)+11β-HSD2 antisense or 11β-HSD2 nonsense oligomer • Corticosterone (10 nmol/L)+11β-HSD1 antisense or 11β-HSD1 nonsense oligomer • In 11-dehydrocorticosterone experiments with vehicle alone • 11-dehydrocorticosterone (100 nmol/L)+11β-HSD1 Antisense or 11β-HSD1 nonsense oligomer
Antisense phosphorothioate oligonucleotides, targeted to block either 11β-HSD2 or 11β-HSD1 gene expression, were obtained from Research Genetics, Huntsville Ala. Antisense oligomers complementary to 20 bp sequences spanning the ribosome binding/translation start site were used. Oligomer sequences were: 5′-CATAACTGCCGTCCAACAGC-3′ (SEQ ID No.: 2) for 11β-HSD1 Antisense and 5′-AGCCCAGCGCTCCATGACTT-3′ (SEQ ID No. 3) for 11β-HSD2 antisense. In control experiments the corresponding sense sequence was used as the nonsense oligomer. Antisense and nonsense oligomers were added directly to each well at 20 μg/10:1 sterile H2O per well for a final concentration of 3 μmol/L.
For contraction measurements, aortic rings were suspended by tungsten wires with 1 g of tension and placed in a vessel bath containing serum free DMEM/F 12 media at 37° C. aerated with 95% O2-5% CO2, at pH 7.4. Vessels were equilibrated for 20 minutes and then tested with phenylephrine (1 nmol/L−10 μmol/L). Although phenylephrine is structurally not a catecholamine, it is considered to be a functional catecholamine as it activates […]. Due to its favorable stability characteristics, it is widely used as a catecholamine substitute in experiments of this nature. The intensity of contraction was assessed by use of a Narishige micromanipulator and model FT03 force transducer (Grass Instrument Co. West Warwick, R.I.). Measurements were recorded on computer using the Labview 4.1 Virtual Instrument System (National Instruments, Austin, Tex.).

11β-HSD enzyme activity = assay: Conversion of 3H-corticosterone to 11-dehydrocorticosterone by aortic rings; parameters: species or system rat; settings: 24 hrs, 3H-corticosterone (10 nM) plus antisense (3 μM), compared to nonsense oligomers
Protocol: as §1, with “Rings were incubated for 24 hours with: • (i) ^3H-corticosterone (10 mmol/L)±11β-HSD2 or 11β-HSD1 antisense (3 μmol/L); control groups received nonsense oligomers.” left out, “Rings from duplicate incubations (total n=20) were blotted dry, pooled and homogenized in 50% methanol using a Polytron. The homogenates were then centrifuged, extracted as below using Sep-Paks and injected onto a HPLC system for analysis.” left out
as §2

11β-HSD2 Dehydrogenase = target: T1, 11β-HSD2 Dehydrogenase (Homo sapiens, UniProt P80365); assay: Inhibition of 11β-HSD2 dehydrogenase (Table 1); format: biochemical
T1 sequence (P80365 1-405): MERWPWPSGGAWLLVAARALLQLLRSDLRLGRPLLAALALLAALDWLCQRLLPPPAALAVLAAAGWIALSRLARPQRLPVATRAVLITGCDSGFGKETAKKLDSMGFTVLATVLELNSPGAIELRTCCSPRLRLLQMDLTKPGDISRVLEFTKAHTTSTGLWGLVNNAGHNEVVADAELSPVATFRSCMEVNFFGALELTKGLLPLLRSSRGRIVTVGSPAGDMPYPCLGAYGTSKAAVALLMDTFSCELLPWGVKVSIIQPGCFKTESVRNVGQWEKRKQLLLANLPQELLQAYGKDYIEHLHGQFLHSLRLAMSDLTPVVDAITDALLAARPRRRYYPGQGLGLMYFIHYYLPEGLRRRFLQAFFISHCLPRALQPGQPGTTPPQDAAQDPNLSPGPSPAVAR

11β-HSD1 Dehydrogenase = target: T2, 11β-HSD1 Dehydrogenase (Rattus norvegicus, UniProt P16232); assay: Inhibition of 11β-HSD1 dehydrogenase (Table 1); format: cell-based
T2 construct: an enzyme present in testicular Leydig cells; endogenous in cells; host or cells: freshly prepared rat Leydig cells

11β-HSD1 Reductase = target: T3, 11β-HSD1 Reductase (Rattus norvegicus, UniProt P16232); assay: Inhibition of 11β-HSD1 reductase (Table 1); format: cell-based
T3 construct: an enzyme present in testicular Leydig cells; endogenous in cells; host or cells: freshly prepared rat Leydig cells

[2] = with the 11β-HSD1-reductase inhibitor steroid

T3 sequence (P16232 whole entry): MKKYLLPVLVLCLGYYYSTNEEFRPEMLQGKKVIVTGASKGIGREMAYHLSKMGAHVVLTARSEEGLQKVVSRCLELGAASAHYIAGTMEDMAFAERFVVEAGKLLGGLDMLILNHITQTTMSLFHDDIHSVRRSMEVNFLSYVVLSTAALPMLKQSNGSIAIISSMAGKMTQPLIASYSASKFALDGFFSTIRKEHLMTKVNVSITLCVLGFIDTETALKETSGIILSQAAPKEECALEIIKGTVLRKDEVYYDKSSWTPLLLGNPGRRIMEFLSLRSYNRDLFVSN
T2 sequence (P16232 whole entry): as above

## 11β-HSD1 antisense: Antisense phosphorothioate oligonucleotide blocking 11β-HSD1 gene expression, 5′-CATAACTGCCGTCCAACAGC-3′ (antisense CATAACTGCCGTCCAACAGC; all phosphorothioate, sugars by position and methylation of C not given here; listed as Homo sapiens)
[1]; incubation medium, 24 hours, antisense compared to nonsense oligomers
  production of 3H-corticosterone from 3H-11-dehydrocorticosterone: markedly reduced
[1]; pooled aortic ring tissue (n=20), antisense compared to nonsense oligomers
  production of 3H-corticosterone in aortic ring tissue: markedly lower
Rat aortic rings; rings incubated 24 hours with 11-dehydro-corticosterone (100 nmol/L) and antisense (3 μmol/L), compared to nonsense oligomers
  ability of 11-dehydro-corticosterone to amplify the contractile response to phenylephrine: attenuated
Rat aortic rings; compared to nonsense oligomers
  contractile response to phenylephrine: significantly increased
11β-HSD enzyme activity
  reduction in the conversion of corticosterone to 11-dehydrocorticosterone: 21%

## 11β-HSD2 antisense: Antisense phosphorothioate oligonucleotide blocking 11β-HSD2 gene expression, 5′-AGCCCAGCGCTCCATGACTT-3′ (antisense AGCCCAGCGCTCCATGACTT; all phosphorothioate, sugars by position and methylation of C not given here; listed as Homo sapiens)
Rat aortic rings; compared to nonsense oligomers
  contractile response to phenylephrine: statistically significant increase
11β-HSD enzyme activity
  reduction in the conversion of corticosterone to 11-dehydrocorticosterone: 24%

## CC(=O)[C@H]1CC[C@@H]2[C@@H]3CCC4=CC(=O)CC[C@]4(C)[C@@H]3C(=O)C[C@]12C [11-Keto-progesterone]
[1]; [2]
  metabolism of 11-dehydro-corticosterone back to corticosterone: decreased
Rat aortic rings; [2]
  ability of 11-dehydro-corticosterone to amplify the contractile effects of phenylephrine: diminished
11β-HSD2 Dehydrogenase
  11β-HSD2 Dehydrogenase (inhibition): Potent Inhibitor
11β-HSD1 Dehydrogenase
  11β-HSD1 Dehydrogenase (inhibition): No Inhibition
11β-HSD1 Reductase
  11β-HSD1 Reductase (inhibition): Selective Inhibitor

## C[C@]12CC(=O)[C@H]3[C@@H](CCC4=CC(=O)CC[C@@]43C)[C@@H]1CC[C@@H]2C(=O)CO [11-dehydro-corticosterone, reference compound]
Rat aortic rings
  effect of the steroid on contractile responses to phenylephrine: amplifies the contractile responses

## C[C@]12C[C@H](O)[C@H]3[C@@H](CCC4=CC(=O)CC[C@@]43C)[C@@H]1CC[C@@H]2C(=O)CO [corticosterone, reference compound]
Rat aortic rings
  effect of the steroid on contractile responses to phenylephrine: amplified contractile responses
